Results reported in the NIST ThermoML archive (doi:10.1016/j.fluid.2015.09.019).
± gives the expanded uncertainty stated by the source.

Assays:
[1] = Crystal; DTA
[2] = Molar enthalpy of transition or fusion; conditions: Crystal; DSC

CC1=CC(=O)c2ccccc2C1=O [2-methyl-1,4-naphthalenedione]
Normal melting temperature [1]: 107.00 ± 1.1 °C
Molar enthalpy of transition or fusion [2]: 20.3 ± 0.92 kJ/mol
